Data as given in patent US20080064723A1, “Anti-Hair Graying Agent” (SHISEIDO COMPANY, LTD., priority 2004, published 2008).

System: humans
Test: Human anti-hair graying effect test
Format: in vivo
Conditions: 0.25% sample applied on scalps of 10 male subjects, two times per day, 2 ml per time, six months; after use vs before use
Description: As the test substances, compounds 1, 2 and 3 were used. Each test substance was dissolved in a mixed solution of an aqueous 70% ethanol solution plus 1% 1,3-butylene glycol and the resultant mixture used as the sample (test substance concentration: 0.25%).
The number of gray hairs among approximately 1000 hairs was counted before and after use of each sample. The changes of the ratios were used to compare the anti-hair graying actions. Specifically, each sample was applied on the scalps of 10 male subjects two times per day, 2 ml per time, continuously for six months. One thousand hairs of each of the subjects were counted divided into black hairs and gray hairs before the application and right after the end of six months after termination of the application to investigate the hair graying rate. The ratios (%) of the subjects where the hair graying rates after use declined 20% or more compared with before use, changed within ±20% or increased by 20% or more were respectively calculated.

| Compound | Hair graying rate: Changing within ±20% (ratio of subjects) [%] | Hair graying rate: Declining 20% or more (ratio of subjects) [%] | Hair graying rate: Increasing 20% or more (ratio of subjects) [%] |
| --- | --- | --- | --- |
| NC1CCC(C(=O)O)CC1 (stereo not drawn) [Compound 1, 4-aminocyclohexane carboxylic acid] | 30 | 70 | 0 |
| O=C(O)C1CCNCC1 [Compound 2, 4-piperidine carboxylic acid] | 30 | 60 | 10 |
| CCOC(=O)C1CCNCC1 [Compound 3, 4-piperidine carboxylic acid ethyl ester] | 20 | 70 | 10 |
